Results from PubChem BioAssay (NCI).
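1) Cells in 96-well plates. 2) Compound, 48 h, 5 concentrations. 3) Linear interpolation between surrounding doses. 4) Unreached endpoint = highest concentration. Definition used: TGI = concentration required for complete inhibition of growth.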

How the values were obtained:
Experiment in all cases: NCI tumour cell line growth inhibition, 48 h
A549 NSCLC = tested on: A549 NSCLC
ACHN renal = tested on: ACHN renal
M14 melanoma = tested on: M14 melanoma
DLD-1 colon = tested on: DLD-1 colon
TK-10 renal = tested on: TK-10 renal
CCRF-CEM leukemia = tested on: CCRF-CEM leukemia
EKVX NSCLC = tested on: EKVX NSCLC
OVCAR-5 ovarian = tested on: OVCAR-5 ovarian
HCT-15 colon = tested on: HCT-15 colon
KM20L2 colon = tested on: KM20L2 colon
OVCAR-3 ovarian = tested on: OVCAR-3 ovarian
SF-295 CNS = tested on: SF-295 CNS
HOP-18 NSCLC = tested on: HOP-18 NSCLC
UACC-62 melanoma = tested on: UACC-62 melanoma
NCI-H460 lung = tested on: NCI-H460 lung
MALME-3M melanoma = tested on: MALME-3M melanoma
DMS 114 small cell lung = tested on: DMS 114 small cell lung
OVCAR-8 ovarian = tested on: OVCAR-8 ovarian
KM12 colon = tested on: KM12 colon
A498 renal = tested on: A498 renal
SNB-75 CNS = tested on: SNB-75 CNS
NCI-H23 lung = tested on: NCI-H23 lung
UO-31 renal = tested on: UO-31 renal
OVCAR-4 ovarian = tested on: OVCAR-4 ovarian
SK-MEL-5 melanoma = tested on: SK-MEL-5 melanoma
HOP-62 NSCLC = tested on: HOP-62 NSCLC
COLO 205 colon = tested on: COLO 205 colon
HOP-92 NSCLC = tested on: HOP-92 NSCLC
UACC-257 melanoma = tested on: UACC-257 melanoma
CAKI-1 renal = tested on: CAKI-1 renal
NCI-H522 lung = tested on: NCI-H522 lung
SR leukemia = tested on: SR leukemia
XF 498 CNS = tested on: XF 498 CNS
RXF 393 renal = tested on: RXF 393 renal
NCI-H226 lung = tested on: NCI-H226 lung
SK-MEL-2 melanoma = tested on: SK-MEL-2 melanoma
SF-539 CNS = tested on: SF-539 CNS
HL-60(TB) leukemia = tested on: HL-60(TB) leukemia
HCT-116 colon = tested on: HCT-116 colon
DMS 273 small cell lung = tested on: DMS 273 small cell lung
M19-MEL melanoma = tested on: M19-MEL melanoma
MOLT-4 leukemia = tested on: MOLT-4 leukemia
LOX IMVI melanoma = tested on: LOX IMVI melanoma
SK-OV-3 ovarian = tested on: SK-OV-3 ovarian
SW-620 colon = tested on: SW-620 colon
SK-MEL-28 melanoma = tested on: SK-MEL-28 melanoma
U251 CNS = tested on: U251 CNS
K-562 leukemia = tested on: K-562 leukemia
SNB-78 CNS = tested on: SNB-78 CNS
SN12C renal = tested on: SN12C renal
HCC-2998 colon = tested on: HCC-2998 colon
SNB-19 CNS = tested on: SNB-19 CNS
IGROV1 ovarian = tested on: IGROV1 ovarian
LXFL 529 NSCLC = tested on: LXFL 529 NSCLC
RPMI-8226 leukemia = tested on: RPMI-8226 leukemia
HT29 colon = tested on: HT29 colon
786-0 renal = tested on: 786-0 renal
SF-268 CNS = tested on: SF-268 CNS
RXF-631 renal = tested on: RXF-631 renal

Compound: CC1(O)C=CC(=O)C=C1
- TGI (A549 NSCLC): > 100 µM
- TGI (ACHN renal): > 62.8 µM
- TGI (M14 melanoma): 41.6 µM
- TGI (DLD-1 colon): 28.2 µM
- TGI (TK-10 renal): > 93 µM
- TGI (CCRF-CEM leukemia): > 77 µM
- TGI (EKVX NSCLC): > 100 µM
- TGI (OVCAR-5 ovarian): > 100 µM
- TGI (HCT-15 colon): 31.7 µM
- TGI (KM20L2 colon): > 100 µM
- TGI (OVCAR-3 ovarian): 51.4 µM
- TGI (SF-295 CNS): > 100 µM
- TGI (HOP-18 NSCLC): > 100 µM
- TGI (UACC-62 melanoma): 36.2 µM
- TGI (NCI-H460 lung): 44.9 µM
- TGI (MALME-3M melanoma): 39.5 µM
- TGI (DMS 114 small cell lung): 32.3 µM
- TGI (OVCAR-8 ovarian): > 68.8 µM
- TGI (KM12 colon): > 75.4 µM
- TGI (A498 renal): > 78.6 µM
- TGI (SNB-75 CNS): > 100 µM
- TGI (NCI-H23 lung): 93.8 µM
- TGI (UO-31 renal): > 84.5 µM
- TGI (OVCAR-4 ovarian): > 91.1 µM
- TGI (SK-MEL-5 melanoma): > 89.4 µM
- TGI (HOP-62 NSCLC): > 79.9 µM
- TGI (COLO 205 colon): > 100 µM
- TGI (HOP-92 NSCLC): > 100 µM
- TGI (UACC-257 melanoma): 34.2 µM
- TGI (CAKI-1 renal): 91.5 µM
- TGI (NCI-H522 lung): 33.7 µM
- TGI (SR leukemia): 61.2 µM
- TGI (XF 498 CNS): > 65.1 µM
- TGI (RXF 393 renal): 44.4 µM
- TGI (NCI-H226 lung): > 100 µM
- TGI (SK-MEL-2 melanoma): 56 µM
- TGI (SF-539 CNS): 54.9 µM
- TGI (HL-60(TB) leukemia): 52.8 µM
- TGI (HCT-116 colon): > 100 µM
- TGI (DMS 273 small cell lung): 38.5 µM
- TGI (M19-MEL melanoma): 58.6 µM
- TGI (MOLT-4 leukemia): > 72.7 µM
- TGI (LOX IMVI melanoma): 52.5 µM
- TGI (SK-OV-3 ovarian): > 100 µM
- TGI (SW-620 colon): > 100 µM
- TGI (SK-MEL-28 melanoma): 38.5 µM
- TGI (U251 CNS): 48.1 µM
- TGI (K-562 leukemia): > 100 µM
- TGI (SNB-78 CNS): 97.2 µM
- TGI (SN12C renal): > 100 µM
- TGI (HCC-2998 colon): > 100 µM
- TGI (SNB-19 CNS): 70.3 µM
- TGI (IGROV1 ovarian): 70.2 µM
- TGI (LXFL 529 NSCLC): 26.4 µM
- TGI (RPMI-8226 leukemia): > 100 µM
- TGI (HT29 colon): > 100 µM
- TGI (786-0 renal): 49.6 µM
- TGI (SF-268 CNS): 29.2 µM

Compound: Cc1ccc(/C=C/C(=O)C(C)(C)CN2CCCCC2)cc1
- TGI (A549 NSCLC): 33.1 µM
- TGI (ACHN renal): 23.7 µM
- TGI (M14 melanoma): 20.2 µM
- TGI (TK-10 renal): 24.1 µM
- TGI (CCRF-CEM leukemia): 10.4 µM
- TGI (EKVX NSCLC): 14.3 µM
- TGI (OVCAR-5 ovarian): 30 µM
- TGI (HCT-15 colon): 20.1 µM
- TGI (KM20L2 colon): 10.7 µM
- TGI (OVCAR-3 ovarian): 8.65 µM
- TGI (SF-295 CNS): 21.3 µM
- TGI (UACC-62 melanoma): 30.3 µM
- TGI (NCI-H460 lung): 23.5 µM
- TGI (MALME-3M melanoma): 29.3 µM
- TGI (OVCAR-8 ovarian): 10.3 µM
- TGI (KM12 colon): 13.4 µM
- TGI (A498 renal): 19.5 µM
- TGI (SNB-75 CNS): 19.5 µM
- TGI (NCI-H23 lung): 30.5 µM
- TGI (UO-31 renal): 22 µM
- TGI (OVCAR-4 ovarian): 22.9 µM
- TGI (SK-MEL-5 melanoma): 8.36 µM
- TGI (HOP-62 NSCLC): 29.5 µM
- TGI (COLO 205 colon): 17.2 µM
- TGI (UACC-257 melanoma): 23.2 µM
- TGI (CAKI-1 renal): 14.2 µM
- TGI (NCI-H522 lung): 13.7 µM
- TGI (XF 498 CNS): 25.3 µM
- TGI (RXF 393 renal): 18.7 µM
- TGI (NCI-H226 lung): 27.6 µM
- TGI (SK-MEL-2 melanoma): 23.4 µM
- TGI (SF-539 CNS): 16.8 µM
- TGI (HCT-116 colon): 22.6 µM
- TGI (DMS 273 small cell lung): 11.7 µM
- TGI (RXF-631 renal): 32.1 µM
- TGI (M19-MEL melanoma): 31.1 µM
- TGI (MOLT-4 leukemia): 7.55 µM
- TGI (LOX IMVI melanoma): 23.4 µM
- TGI (SK-OV-3 ovarian): 26.3 µM
- TGI (SW-620 colon): 7.99 µM
- TGI (SK-MEL-28 melanoma): 33.4 µM
- TGI (U251 CNS): 27.5 µM
- TGI (K-562 leukemia): 12 µM
- TGI (SNB-78 CNS): 29.7 µM
- TGI (SN12C renal): 15.1 µM
- TGI (HCC-2998 colon): 28.8 µM
- TGI (SNB-19 CNS): 8.73 µM
- TGI (IGROV1 ovarian): 35.6 µM
- TGI (LXFL 529 NSCLC): 19.4 µM
- TGI (RPMI-8226 leukemia): 14.7 µM
- TGI (HT29 colon): 12 µM
- TGI (786-0 renal): 18.9 µM
- TGI (SF-268 CNS): 36.2 µM
